From US10278942B2 (PELOTON THERAPEUTICS, INC., priority 2015, dated 2019)
Where two headings read alike, the source gives them in different places.

What was measured:
[1] = molecular target: T1, HIF-2α HIS TAG-PASB Domain (Homo sapiens, UniProt Q99814); assay: HIF-2α Scintillation Proximity Assay (SPA); assay type: binding
T1 construct: 100 nM HIF-2α HIS TAG-PASB Domain
How it was run: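 IC50 values rest on percent inhibition, where the sample signal is scaled between high and low controls. Wells contain about 100 μL: compound dispensed as 2 μL of DMSO solution, 88 μL protein-probe mix and 10 μL of beads.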

786-O-Hif-Luc cells = assay: Luciferase Assay (HIF responsive elements reporter); conditions: read-out: Mean Luciferase EC50 (nM), 786-O-Hif-Luc cells
Protocol: A pool of infected cells were then selected against 2 μg/mL of puromycin (P8833, Sigma) for 10 days followed by limited dilution to select single clones. […] Each concentration was tested in triplicate. After about 24 hours, luciferase activity was determined using ONE-Glo Luciferase Assay Reagent (E6110, Promega) following the manufacturer's recommended procedure. EC50 were calculated using Dotmatics software.

[2] = read-out: Scintillation Proximity Assay IC50

T1 sequence (Q99814 240-350 limits assumed): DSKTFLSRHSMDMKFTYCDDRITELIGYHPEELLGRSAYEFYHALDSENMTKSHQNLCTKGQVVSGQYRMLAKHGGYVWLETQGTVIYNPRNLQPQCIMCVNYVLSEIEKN

| IC50 [1, 2] | EC50 (786-O-Hif-Luc cells) | IC50 ([1]; Scintillation Proximity Assay IC50 (nM)) | Compound |
| --- | --- | --- | --- |
| 250 to 1000 nM | 50 to 249 nM |  | NC(=O)Cc1ccc(S(=O)(=O)C(F)(F)F)c2c1CCC2O (stereo not shown) [Compound 523, 2-[1-hydroxy-7-(trifluoromethylsulfonyl)indan-4-yl]acetamide] |
| < 50 nM | > 1000 nM |  | Cc1cncc(Oc2ccc(S(C)(=O)=O)c3c2CC(F)(F)[C@H]3O)n1 [Compound 201] |
| < 50 nM | 50 to 249 nM |  | O=S(=O)(c1ccc(OCC2(F)COC2)c2c1[C@H](O)C(F)(F)C2)C(F)(F)F [Compound 573] |
| < 50 nM | 50 to 249 nM |  | COCC(C)Oc1ccc(S(=O)(=O)C(F)(F)F)c2c1CC(F)(F)C2O (stereo not shown) [Compound 594] |
| < 50 nM | 250 to 1000 nM |  | O=S1(=O)c2ccc(Oc3cccc4sccc34)c(C(F)F)c2C(O)C1(F)F (stereo not shown) [Compound 440] |
| 250 to 1000 nM | 50 to 249 nM |  | O=S1(=O)c2ccc(Oc3cncc(F)c3)c(Br)c2[C@@H](O)C1(F)F [Compound 423] |
| < 50 nM | 250 to 1000 nM |  | O=S(=O)(c1ccc(-c2cc(F)cc(Cl)c2)c2c1[C@H](O)C(F)(F)C2)C(F)(F)F [Compound 557] |
| 50 to 249 nM | 50 to 249 nM |  | O=S(=O)(c1ccc(OCC2CC2)c2c1C(O)C(F)(F)C2)C(F)(F)F (stereo not shown) [Compound 598] |
| < 50 nM | 50 to 249 nM |  | O[C@H]1c2c(C(F)(F)F)ccc(OCC(F)F)c2[C@@H](F)C1(F)F [Compound 699] |
| > 1000 nM | > 1000 nM |  | C[C@@H]1Cc2c(Oc3cc(F)cc(C#N)c3)ccc(S(C)(=O)=O)c2[C@@H]1O [Compound 301] |
| 250 to 1000 nM | 250 to 1000 nM |  | CC(Oc1ccc(S(=O)(=O)C(F)(F)F)c2c1CC(F)(F)[C@H]2O)C1(C#N)CC1 (stereo partly shown) [Compound 748] |
| > 1000 nM | > 1000 nM |  | CC(=O)N[C@H]1C[C@@H](Oc2ccc(S(=O)(=O)C(F)(F)F)c3c2CC(F)(F)[C@H]3O)C1 [Compound 725] |
| > 1000 nM | > 1000 nM |  | N#Cc1cncc(-c2ccc(S(=O)(=O)C(F)(F)F)c3c2CC(F)(F)[C@H]3O)c1 [Compound 570] |
| 250 to 1000 nM | > 1000 nM |  | O=S(=O)(c1ccc(Cc2ccccc2)c2c1C(O)C(F)(F)C2)C(F)(F)F (stereo not shown) [Compound 511] |
| 250 to 1000 nM | > 1000 nM |  | CCS(=O)(=O)c1ccc(Oc2cc(F)cc(Cl)c2)c2c1C(O)CC2 (stereo not shown) [Compound 91] |
| 50 to 249 nM | 250 to 1000 nM |  | CS(=O)(=O)c1ccc(Oc2cc(F)cc(C#N)c2)c(C(F)F)c1C#N [Compound 94] |
| 50 to 249 nM | > 1000 nM |  | Cc1c(S(=O)(=O)C(F)F)ccc(Oc2cc(F)cc(C#N)c2)c1C#N [Compound 33] |
| < 50 nM | 50 to 249 nM |  | CC1CC(Oc2ccc(S(=O)(=O)C(F)(F)F)c3c2CC(F)(F)C3O)CCO1 (stereo not shown) [Compound 623] |
| 250 to 1000 nM | > 1000 nM |  | O=S(=O)(c1ccc(Oc2ccc(F)c(Cl)c2)c2c1C(O)CC2)C(F)(F)F (stereo not shown) [Compound 218] |
| 50 to 249 nM | 250 to 1000 nM |  | CS(=O)(=O)c1ccc(Oc2cncc(Br)c2)c2c1[C@H](O)C(F)(F)C2 [Compound 324] |
| < 50 nM | > 1000 nM |  | CCOc1ccc(S(C)(=O)=O)c2c1CC(F)(F)[C@H]2O [Compound 778] |
| < 50 nM | < 50 nM |  | O=S(=O)(c1ccc(OC[C@H]2CC2(F)F)c2c1[C@H](O)C(F)(F)C2)C(F)(F)F [Compound 727] |
|  | > 1000 nM | > 1000 nM | NCc1c(S(=O)(=O)C(F)F)ccc(Oc2cc(F)cc(Cl)c2)c1Br [Compound 85] |
| 250 to 1000 nM | > 1000 nM |  | CS(=O)(=O)NCCOc1ccc(S(=O)(=O)C(F)(F)F)c2c1CC(F)(F)C2O (stereo not shown) [Compound 637] |
| 250 to 1000 nM | 250 to 1000 nM |  | CCOc1ccc(S(=O)(=O)C(F)F)c2c1CC(F)(F)[C@H]2O [Compound 678] |

| Compound | IC50 [1, 2] | EC50 (786-O-Hif-Luc cells) | IC50 ([1]; Scintillation Proximity Assay IC50 (nM)) |
| --- | --- | --- | --- |
| CS(=O)(=O)c1ccc(OC2CC(F)(F)C2)c2c1[C@H](O)C(F)(F)[C@H]2F [Compound 575, (1S,3S)-4-(3,3-difluorocyclobutoxy)-2,2,3-trifluoro-7-(methylsulfonyl)-2,3-dihydro-1H-inden-1-ol] | 250 to 1000 nM | > 1000 nM |  |
